Data set [1] deals with primary mouse dermal fibroblasts. The data set is described as follows: Dermal fibroblast proliferation in vitro, BrdU labeling assay. Type of data set: cell-based, C57BL/6 mouse. The conditions noted are these: 24 hours; for BrdU/Vimentin Labeling Index (%): 50 nM peptide in 1% FBS medium, BrdU 2 hours. As for the experimental part: (§1) Full-thickness skin tissue was obtained from the dorsum of C57BL/6 mouse. The subcutaneous tissue was carefully dissected from the skin and washed three times in sterile phosphate-buffered saline (PBS). The tissue was then cut into small pieces (1-2 mm^3). After being digested with 0.1% dispase at 4° C. overnight, the epidermal layers were removed, and the remaining dermal parts were further digested with 0.1% collagenase I at 37° C. for another 4 hours. The digested cells were then collected by centrifugation (400 g for 5 minutes) and resuspended in high-glucose DMEM supplemented with 10% FBS, 2 mM L-glutamine, and 1% penicillin-streptomycin antibiotic mixture. Cells were seeded onto tissue-culture plates (Falcon Labware; NJ, USA) at 1×10^3 cells/cm^2 and maintained at 37° C. with 5% CO2. After 24 hours, the medium was discarded to remove residual non-adherent cells, and cell culture was replenished with a fresh medium. For passage, near-confluent cells were harvested with 0.25% trypsin/EDTA.
After fixing with 4% paraformaldehyde, cells were exposed to cold methanol for 2 minutes, and then treated with 1 N HCl at room temperature for 1 hour before performing immunofluorescence staining.
BrdU-labeled DNA was detected by polyclonal anti-BrdU antibody and rhodamine-conjugated donkey anti-rabbit IgG. Nuclei were counterstained with Hoechst 33258 (blue).
Primary mouse dermal fibroblasts were isolated and cultured as described in the “Materials and Methods” section. The dermal fibroblast at passage 2 were seeded at gelatin-coated slide in a 6-well plate at a density of 2×10^5 cells per well and cultured in growth medium (DMEM 10% FBS) for 24 hours before being replaced by a basal growth medium with 1% FBS only (control group) or with 1% FBS plus an additional 50 nM of PEDF-derived peptide (i.e., 29-mer, 24-mer, 20-mer, 18-mer, Mo 29-mer, or Mo 20-mer) for 24 hours. For BrdU labeling assay, BrdU (final concentration, 10 μM) was added to the culture for 2 hours. The level of BrdU- and vimentin-double positive cells was expressed as the percentage of BrdU- and vimentin-double positive cells per total vimentin-positive cells (the BrdU/Vimentin Labeling Index), and the results were summarized in Table 2.
On the technique in general: Dividing cells build labelled thymidine or BrdU into new DNA.

The subject of data set [2] is MMP-13. The data set is described as follows: UVB-induced MMP-13 mRNA expression in primary mouse dermal fibroblasts, RT-PCR. In kind it is cell-based. How it is done:
as §1
The total RNA was extracted from cells using the TRIzol (Invitrogen) and treated with RNase-free DNase I (Qiagen, Santa Clarita, Calif.) to remove genomic DNA and then purified with an RNA purification kit (Dynabeads; Invitrogen). 1 μg of total RNA retrieved from primary dermal fibroblast was reverse-transcribed into cDNA by 200 units of expand Reverse-Transcriptase (Roche, Mannheim, Germany) in 20 μl of reaction buffer containing 0.25 μg of random primers and 0.8 mM dNTPs at 42° C. for 1 hour. 2 μl of the cDNA was used for the PCR reaction as templates. PCR was performed in a 30 μl volume containing 15 μl of EconoTaq® PLUS GREEN 2× Master Mix (Lucigen® Corp.), 1 μM of each primer and 2 μl of template DNA. cDNA was synthesized in an 18-22 cycle amplification reaction (denaturation, 20 s, 94° C.; annealing, 30 s, 57° C.; and polymerization, 40 s, 72° C.). The number of cycles for the primer set was chosen to be in the linear range of amplification. The sequences of specific PCR primers were mouse MMP-13 (accession number: NM_008607) sense, […] (SEQ ID NO: 12); antisense, […] (SEQ ID NO: 13); PCR product: 201 bp; and mouse glyceraldehyde 3-phosphate dehydrogenase (GAPDH; accession number: M32599) sense, […] (SEQ ID NO: 14); and anti-sense, […] (SEQ ID NO: 15); PCR product: 223 bp.). The PCR products were electrophoresed in a 2% agarose gel containing ethidium bromide and visualized by UV illumination. The intensities of the PCR products were quantified densitometrically using a FUJI LAS-3000 system and Multi Gauge Ver. 1.01 software (Fujifilm, Tokyo, Japan).
Primary mouse dermal fibroblasts in passage 2 of monolayer cultures were incubated with 1% FBS-DMEM supplemented with or without 100 nM PEDF peptide for 24 hours, and then subjected to UVB irradiation as described above. After UVB irradiation, PBS was replaced with 1% FBS-DMEM with or without PEDF peptide for further 24 hours, and then cellular total RNAs were extracted for subsequent RT-PCR analysis. The expression level of MMP-13 mRNA was normalized with the expression level in the Vehicle/UVB group (set to 100%), and quantitative results are summarized in Table 7.

The test system of data set [3] is MMP-1. As to the kind of experiment: UVB-induced MMP-1 protein expression in WS-1 cells, western blotting. Type of data set: cell-based, human. How it is done:
Human skin fibroblast WS-1 cell line was obtained from Food Industry Research and Development Institute (Hsin-Chu, Taiwan). The WS-1 cells were maintained in a 37° C., 5% CO2 humidified incubator as monolayers in culture flasks. They were grown in 10% FBS-DMEM supplemented with 2 mM L-glutamine, 0.1 mM non-essential amino acids, 1% penicillin/streptomycin. For passage, near-confluent cells were sub-cultured by 0.25% trypsin/EDTA.
Skin tissues were homogenized in ice-cold lysis buffer containing 20 mM HEPES (pH 7.4), 150 mM NaCl, 1% SDS, 1 mM ethylenediamine tetraacetic acid (EDTA), 5 mM phenylmethanesulfonyl fluoride (PMSF), and 1 mM dithiothreitol (DTT), 1% Triton X-100, with freshly added protease inhibitor cocktail (Roche, Indianapolis, Ind.). Homogenates were then centrifuged at 12,000 g for 30 minutes at 4° C., and supernatants were then collected and stored at −70° C. Protein contents in lysates were determined using the Bradford assay. Whole cell lysates were prepared using the above lysis buffer. Aliquots of the lysates were then resolved on a SDS-PAGE and then electrotransferred to polyvinylidene difluoride (PVDF) membranes (Millipore, Bedford, Mass., USA) and processed for immunoblot analysis.
Antibodies used in the immunoblot study included anti-type I collagen 1A1 antibody (1:1000 dilution), anti-MMP-1 antibody (1:500 dilution) and anti-β-actin antibody (1:10000 dilution). Proteins of interest were detected using the appropriate IgG-HRP secondary antibody and ECL reagent (Amersham, Arlington Heights, Ill., USA). X-ray films were scanned on a Model GS-700 Imaging Densitometer (Bio-Rad Laboratories, Hercules, Calif.) and analyzed using Labworks 4.0 software. For quantification, blots from at least three independent experiments were used.
WS-1 were seeded on a six-well plate at a density of 1×10^5 cells per well and grown in the 10% FBS-DMEM growth medium for 24 hours and then incubated with 1% FBS-DMEM supplemented with or without 100 nM PEDF peptide for further 24 hours. The cells were washed twice with phosphate buffered saline (PBS) and exposed to UVB radiation covered with PBS. The UVB treatment was conducted in a cell culture hood by using a UVB lamp (model XL-1000B, Spectrolinker™ Inc.) at a final dose of 15 mJ/cm^2 for about 100 seconds. Cell viability was assayed using trapan blue exclusion assay (>95%). After UVB irradiation, PBS was replaced with 1% FBS-DMEM with or without PEDF peptide for further 48 hours and then protein extracts were assayed by western blotting for the expression of MMP-1 protein. Cells that were not subjected to UVB irradiation were used as control (normal). The expression level of MMP-1 was normalized with the expression level in the Vehicle/UVB group (set to 100%), and quantitative results are summarized in Table 6.
A general note: In western blotting, separated proteins are transferred to a membrane and probed.

A short description of data set [4]: Transdermal delivery of FITC-conjugated 29-mer ointment with or without microneedle patch, fluorescent microscopy of skin. In kind it is in vivo, C57BL/6 mice. The conditions noted are these: 24 hours later. How it is done:
The Fluorescein (FITC)-conjugated 29-mer peptide was used to investigate the in vivo transdermal delivery of the present PEDF peptides.
First, the dorsal hair of 8-wk-old male C57BL/6 mice were removed using a melted wax/rosin mixture (1:1) under general anesthesia. On the next day, the ointment containing the FITC-conjugated 29-mer peptide (25 μM) was applied onto the dorsal skin of the mice, and then a microneedle patch (3M™ Microchannel Skin System; provided from 3M Singapore) was gently pressed against the dorsal skin so that the microneedles penetrated less than 100 microns into the skin (the FITC-29 mer/MN group). As to the control group (FITC-29 mer/CT), the mice received the ointment without subsequent microneedle treatment. Twenty-four hours later, the skin was harvested, fixed, cryosectioned and examined by fluorescent microscopy.
The H&E stained section in the left panel of FIG. 1 highlights the epidermis and dermis of the specimen. The fluorescence images in the middle and right panels of FIG. 1 illustrate the distribution of FITC-conjugated 29-mer across the skin.

No end group written: not given here.

Regarding “SLGAEHRTESVIHRALYYDLITNPDIHST [Mo 29-mer, synthetic peptide derived from mouse PEDF]”, the “BrdU/Vimentin Labeling Index (%)” value in data set [1] stood at 11.1 ± 2.0 %.

With “SLGAEHRTESVIHRALYYDL [Mo 20-mer, synthetic peptide derived from mouse PEDF]”, the “BrdU/Vimentin Labeling Index (%)” value in data set [1] is recorded as 11.3 ± 1.6 %.

As for “SLGAEQRTESIIHRALYYDLISSP [24-mer, synthetic peptide corresponding to residues 93-116 of human PEDF]”, the “BrdU/Vimentin Labeling Index (%)” value in data set [1] was 10.1 ± 1.9 %. In addition, the “proliferation relative to control medium” value in data set [1] (50 nM peptide) is “about 5 fold”. Moreover, the “MMP-13 Expression Level (%)” value in data set [2] (100 nM peptide 24 h before and 24 h after UVB 15 mJ/cm^2, mRNA, Vehicle/UVB set to 100%) was found to be 16.3 ± 1.5 %. Further, in data set [2] (cells pretreated with peptide, UVB), the “effect on UVB-induced upregulation of MMP-13” value was “substantially reduced”. Further, in data set [3] (100 nM peptide 24 h before and 48 h after UVB 15 mJ/cm^2, Vehicle/UVB set to 100%), the “MMP-1 Expression Level (%)” value was found to be 48 ± 7.2 %. The “MMP-1 protein level relative to vehicle/UVB group” value in data set [3] (pre-incubation with peptide, UVB) is “about half”.

As for “FITC-conjugated 29-mer: Fluorescein (FITC)-conjugated 29-mer peptide used to investigate in vivo transdermal delivery (SLGAEQRTESIIHRALYYDLISSPDIHGT; also: FITC conjugated, site not given here)”, the results for the “distribution of fluorescein signal across the skin (delivery to dermis)” value in data set [4] (ointment 25 μM on dorsal skin plus microneedle patch (FITC-29 mer/MN)) and in data set [4] (ointment 25 μM on dorsal skin without microneedle treatment (FITC-29 mer/CT)) were “successfully delivered to the dermis” and “barely detectable in the dermis”, respectively.

The values are drawn from patent US9815878B2, “Use of PEDF-derived polypeptides for preventing and/or ameliorating skin aging” (MacKay Memorial Hospital, priority 2012, dated 2017).
